This is an account of results in ChEMBL document CHEMBL6177984, “Pyrazolo[1,5-a]pyrimidine-Based Type-I Photosensitizer as an Efficient Pyroptosis Inducer for Tumor Ablation” (J Med Chem, 2025).

By IC50 is commonly meant the concentration that inhibits the measured activity by half.

Series [1] deals with MDA-MB-231. Description: Photocytotoxicity in human MDA-MB-231 cells assessed as cell viability preincubated with compound for 1 hr followed by light irradiated with 400 to 700 nm 100 mW/cm^2 for 10 mins and measured after 24 hrs by CCK-8 assay. It counts as functional, cell-based. The following applies: MDA-MB-231, light or radiation study.
The nature of series [2]: Dark cytotoxicity against human MDA-MB-231 cells assessed as cell viability incubated for 24 hrs by CCK8 assay. It counts as toxicity, cell-based.
Series [3] deals with MDA-MB-231. Description: Photocytotoxicity in human MDA-MB-231 cells assessed as cell viability at 1 uM preincubated with compound for 1 hr followed by light irradiated with 400 to 700 nm 100 mW/cm^2 for 10 mins and measured after 24 hrs by CCK-8 assay. The format is functional, cell-based. The following applies: time 1510.0 min.
Series [4] can be described thus: Induction of ROS generation in BPS buffer assessed as increase in superoxide anion radical level at 10 uM irradiated with 525 nm 20 mW/cm2 light by DHR123 probe based fluorescence spectra analysis. The format is functional.
The test system of series [5] is MDA-MB-231. Description: Dark cytotoxicity against human MDA-MB-231 cells assessed as cell viability at 1 uM incubated for 24 hrs by CCK8 assay. It counts as toxicity, cell-based. To be noted: mda-mb-231, 24 h. For orientation: Tetrazolium dyes change colour on reduction, which living cells bring about.

Activity calls are given as the source filed them. The rule behind the calls is not given here. Bounds are passed on as bounds.

Take `CC[n+]1ccc(/C=C/c2ccc(-c3cnn4ccc(N5CCOCC5)nc34)s2)c2ccccc21`: the IC50 in the series on MDA-MB-231 [1] turned out to be 0.92 µM. Moreover, the half-inhibitory concentration (IC50) at 24 h in series [2] was over 10 µM.
As to `C[N+]1=C(/C=C/c2ccc(-c3cnn4ccc(N5CCOCC5)nc34)s2)C(C)(C)c2ccccc21`, the outcome in the series on MDA-MB-231 [3] was Active. Further, in the series with MDA-MB-231 [1], the half-maximal inhibitory concentration (IC50) was determined as 0.33 µM. Besides, in series [2], the IC50 at 24 h is over 10 µM.
Turning to `COC(=O)c1ccccc1C1c2ccc(N)cc2Oc2cc(N)ccc21`, the result in series [4] was Active.
`CC[n+]1ccc(/C=C/c2ccc(-c3cnn4ccc(N5CCOCC5)nc34)s2)cc1.[Br-]`: in the series with MDA-MB-231 [5], the Activity entry is “Non-toxic”. The half-inhibitory concentration (IC50) in the series on MDA-MB-231 [1] is over 10 µM. Moreover, in series [2], the concentration for half-maximal inhibition (IC50) at 24 h was over 10 µM.
